What was measured:
[1] = test system: gastric secretion in rats; experiment: inhibition of gastric secretion in rats (H. Shay et al.); assay type: in vivo; settings: rat, intraduodenal administration; read-out: antisecretory activity, approximate ED25
Protocol: (§1) One of the preferred compounds of the invention having antisecretory activity is, for example, the compound 3-(2-methyl-benzylidene)-1,2,3,10-tetrahydro-10-oxo-10H-cyclopenta[d]pyrido[1,2-a]pyrimidine-7-carboxylic acid, which has an approximate ED25 value of 10 mg/kg in the above test in the rat, after intraduodenal administration. In view of their high therapeutic index the compounds of the invention can be safely used in medicine. For example, the approximate acute toxicity (LD50) of the compounds 3-benzylidene-1,2,3,10-tetrahydro-10-oxo-cyclopenta[d]pyrido[1,2-a]pyrimidine-7-carboxylic acid, 3-(2-methyl-benzylidene)-1,2,3,10-tetrahydro-10-oxo-10H-cyclopenta[d]pyrido[1,2-a]pyrimidine-7-carboxylic acid and 4-benzylidene-1,2,3,4-tetrahydro-11-oxo-11H-pyrido[2,1-b]quinazoline-8-carboxylic acid, in the mouse, determined with single administration of increasing doses and measured on the seventh day after the day of treatment, is per os higher than 800 mg/kg. Analogous toxicity data have been found for the other compounds of the invention.

[2] = acute toxicity (LD50) in the mouse; settings: in vivo, po, per os, single administration of increasing doses, measured on the seventh day after treatment, read-out: approximate acute toxicity (LD50)
Protocol: as §1

restraint ulcers in rats = experiment: inhibition of restraint ulcers in rats (Bonfils et al.); assay type: in vivo; settings: po, 1 h; rat, per os one hour before immobilization; approximate value; read-out: Anti-ulcerogenic activity ED50
Protocol: (§2) For example, in the above test in the rat the compound FCE 21273 gives about a 30% inhibition of RPAR reaction when administered orally at a dosage of 100 mg/kg. The compounds of the present invention, furthermore, are active on the gastroenterical system, in particular they are endowed with anti-ulcerogenic and anti-secretory activity and are therefore useful in therapy, for example, in the prevention and treatment of peptic, e.g., duodenal, gastric and esophageal, ulcers and to inhibit gastric acid secretion. The anti-ulcerogenic activity of the compounds of the invention is shown, e.g., by the fact that they are active in the test of inhibition of restraint ulcers in rats, according to the method of Bonfils et al. (Therapie, 1960, 15, 1096; Jap. J.Pharmac. 1968, 18, 9).
The tested compound was administered per os (p.o.) one hour before the immobilization.
Six Sprague-Dawley male rats (100-120 g) fasted 24 hours were used for the experiment: a square flexible small-mesh wire netting was used for the immobilization and 4 hours after the immobilization the rats were sacrificed, their stomachs were removed and the lesions counted under a dissecting microscope.

[3] = test system: Reversed Passive Arthus Reaction (RPAR); experiment: Reversed Passive Arthus Reaction (RPAR) in the rat; assay type: in vivo; settings: administered orally at 100 mg/kg
Description: Furthermore the compounds of this invention are effective in vivo, for example, in inhibiting the Reversed Passive Arthus Reaction (RPAR) which is a model of immune-complex induced inflammatory reaction initiated by the interaction of antigen and antibody resulting in the formation of precipitating immune-complex, followed by complement fixation and accumulation of PMN in the focal site (D. K. Gemmell, J. Cottney and A. J. Lewis, Agents and Actions 9/1 page 107, 1979).
as §2

chopped guinea-pig lung = experiment: antigen induced SRS production from chopped guinea-pig lung; assay type: cell-based; settings: Cavia porcellus, in vitro, FCE 21273 at 10 mcg/ml
Description: (2) test of antigen induced SRS production from chopped guinea-pig lung, according to W. E. Brocklehurst (J. Physiol., 151, 416, 1960); and in vivo

rat peritoneal cells = experiment: A 23187 induced SRS production from rat peritoneal cells; assay type: cell-based; settings: in vitro, FCE 21273 at 1 mcg/ml
Description: (1) test of A 23187 induced SRS production from rat peritoneal cells, according to M. K. Bach and J. R. Brashler (J. Immunol., 113, 2040, 1974);

Cc1ccccc1C=C1CCc2c1nc1ccc(C(=O)O)cn1c2=O [3-(2-methyl-benzylidene)-1,2,3,10-tetrahydro-10-oxo-cyclopenta[d]pyrido[1,2-a]pyrimidine-7-carboxylic acid]
ED25 [1]: ~10 mg/kg
LD50 at 168 h [2]: > 800 mg/kg

O=C(O)c1ccc2nc3c(c(=O)n2c1)CCC3=Cc1ccccc1 [3-benzylidene-1,2,3,10-tetrahydro-10-oxo-cyclopenta[d]pyrido[1,2-a]pyrimidine-7-carboxylic acid]
LD50 at 168 h [2]: > 800 mg/kg
ED50 (restraint ulcers in rats): 12 mg/kg

O=C(O)c1ccc2nc3c(c(=O)n2c1)CCCC3=Cc1ccccc1 [FCE 21273, 4-benzylidene-1,2,3,4-tetrahydro-11-oxo-11H-pyrido[2,1-b]quinazoline-8-carboxylic acid]
inhibition of RPAR reaction [3]: ~30%
inhibition at 10 µg/mL (chopped guinea-pig lung): 47%
LD50 at 168 h [2]: > 800 mg/kg
inhibition at 1 µg/mL (rat peritoneal cells): 50%

From US4521419A, “Condensed cycloaliphatic derivatives of substituted pyrido[1,2-a]pyrimidines and methods of treating allergic conditions, peptic ulcers and inhibiting gastric acid secretion with them” (Farmitalia Carlo Erba S.p.A., priority 1982, dated 1985)
